Measurements from ChEMBL document CHEMBL1201862, “PubChem BioAssay data set” (2004).
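Method: 48-hour compound exposure of cells in 96-well plates, five concentrations, linear interpolation of endpoints. The concentration for 50% growth inhibition is given as GI50.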 Calls of active or inactive are those of the source. Rule as the data show it: active = GI50 up to about 1.1 µM and inactive = higher.

Assays:
Experiment in all cases: NCI tumour cell line growth inhibition, 48 h
[1] = system: SK-MEL-28
[2] = system: OVCAR-3
[3] = system: PC-3
[4] = system: LOX IMVI
[5] = system: MDA-MB-231
[6] = system: SF-295
[7] = system: HOP-62
[8] = system: HOP-92
[9] = system: RPMI-8226
[10] = system: HCT-116
[11] = system: SW-620
[12] = system: DU-145
[13] = system: HCC 2998
[14] = system: M14
[15] = system: HT-29
[16] = system: UACC-257
[17] = system: HL-60
[18] = system: UO-31
[19] = system: SK-OV-3
[20] = system: OVCAR-8
[21] = system: Hs-578T
[22] = system: TK-10
[23] = system: NCI-H522
[24] = system: K562
[25] = system: SNB-75
[26] = system: SR
[27] = system: SN12C
[28] = system: MCF7
[29] = system: OVCAR-5
[30] = system: SK-MEL-2
[31] = system: OVCAR-4
[32] = system: U-251
[33] = system: ACHN
[34] = system: IGROV-1
[35] = system: NCI-H23
[36] = system: NCI/ADR-RES
[37] = system: T47D
[38] = system: COLO 205
[39] = system: CCRF-CEM
[40] = system: SNB-19
[41] = system: A549
[42] = system: CAKI-1
[43] = system: HCT-15
[44] = system: NCI-H460
[45] = system: SK-MEL-5
[46] = system: MDA-N
[47] = system: NCI-H226
[48] = system: MOLT-4
[49] = system: KM12
[50] = system: SF-539
[51] = system: UACC-62
[52] = system: MDA-MB-435
[53] = system: EKVX
[54] = system: Malme-3M
[55] = system: A498
[56] = system: SF-268
[57] = system: RXF 393
[58] = system: 786-0

Compound: COc1ccc([C@@H]2ON(C)[C@H]3CN(C)C(=O)[C@@H]23)cc1
- GI50 [1]: > 100 µM (inactive)
- GI50 [2]: > 100 µM (inactive)
- GI50 [3]: > 100 µM (inactive)
- GI50 [4]: > 100 µM (inactive)
- GI50 [5]: > 100 µM (inactive)
- GI50 [6]: > 100 µM (inactive)
- GI50 [7]: > 100 µM (inactive)
- GI50 [8]: > 100 µM (inactive)
- GI50 [9]: > 100 µM (inactive)
- GI50 [10]: > 100 µM (inactive)
- GI50 [11]: > 100 µM (inactive)
- GI50 [12]: > 100 µM (inactive)
- GI50 [13]: > 100 µM (inactive)
- GI50 [14]: > 100 µM (inactive)
- GI50 [15]: > 100 µM (inactive)
- GI50 [16]: > 100 µM (inactive)
- GI50 [17]: > 100 µM (inactive)
- GI50 [18]: > 100 µM (inactive)
- GI50 [19]: > 100 µM (inactive)
- GI50 [20]: > 100 µM (inactive)
- GI50 [21]: > 100 µM (inactive)
- GI50 [22]: > 100 µM (inactive)
- GI50 [23]: > 100 µM (inactive)
- GI50 [24]: > 100 µM (inactive)
- GI50 [25]: 10.1 µM (inactive)
- GI50 [26]: > 100 µM (inactive)
- GI50 [27]: > 100 µM (inactive)
- GI50 [28]: > 100 µM (inactive)
- GI50 [29]: > 100 µM (inactive)
- GI50 [30]: > 100 µM (inactive)
- GI50 [31]: > 100 µM (inactive)
- GI50 [32]: > 100 µM (inactive)
- GI50 [33]: > 100 µM (inactive)
- GI50 [34]: > 100 µM (inactive)
- GI50 [35]: > 100 µM (inactive)
- GI50 [36]: > 100 µM (inactive)
- GI50 [37]: > 100 µM (inactive)
- GI50 [38]: > 100 µM (inactive)
- GI50 [39]: > 100 µM (inactive)
- GI50 [40]: > 100 µM (inactive)
- GI50 [41]: > 100 µM (inactive)
- GI50 [42]: > 100 µM (inactive)
- GI50 [43]: > 100 µM
- GI50 [44]: > 100 µM (inactive)
- GI50 [45]: > 100 µM (inactive)
- GI50 [46]: > 100 µM (inactive)
- GI50 [47]: > 100 µM (inactive)
- GI50 [48]: > 100 µM (inactive)

Compound: COc1ccc(S(=O)(=O)O)cc1-n1nc(C(=O)Nc2ccccc2)n[n+]1-c1cc(S(=O)(=O)[O-])ccc1OC
- GI50 [49]: > 100 µM (inactive)
- GI50 [1]: > 100 µM (inactive)
- GI50 [2]: > 100 µM (inactive)
- GI50 [50]: > 100 µM (inactive)
- GI50 [3]: > 100 µM (inactive)
- GI50 [5]: > 100 µM (inactive)
- GI50 [6]: > 100 µM (inactive)
- GI50 [7]: > 100 µM (inactive)
- GI50 [9]: > 100 µM (inactive)
- GI50 [10]: > 100 µM (inactive)
- GI50 [11]: > 100 µM (inactive)
- GI50 [12]: > 100 µM (inactive)
- GI50 [51]: > 100 µM (inactive)
- GI50 [13]: > 100 µM (inactive)
- GI50 [14]: > 100 µM (inactive)
- GI50 [15]: > 100 µM (inactive)
- GI50 [52]: > 100 µM (inactive)
- GI50 [17]: > 100 µM (inactive)
- GI50 [53]: > 100 µM (inactive)
- GI50 [18]: > 100 µM (inactive)
- GI50 [19]: > 100 µM (inactive)
- GI50 [21]: > 100 µM (inactive)
- GI50 [54]: > 100 µM (inactive)
- GI50 [22]: > 100 µM (inactive)
- GI50 [23]: > 100 µM (inactive)
- GI50 [24]: > 100 µM (inactive)
- GI50 [25]: > 100 µM (inactive)
- GI50 [26]: > 100 µM (inactive)
- GI50 [27]: > 100 µM (inactive)
- GI50 [28]: > 100 µM (inactive)
- GI50 [29]: > 100 µM (inactive)
- GI50 [31]: > 100 µM (inactive)
- GI50 [32]: > 100 µM (inactive)
- GI50 [33]: > 100 µM (inactive)
- GI50 [34]: > 100 µM (inactive)
- GI50 [55]: > 100 µM (inactive)
- GI50 [35]: > 100 µM (inactive)
- GI50 [36]: > 100 µM (inactive)
- GI50 [56]: > 100 µM (inactive)
- GI50 [37]: > 100 µM (inactive)
- GI50 [38]: > 100 µM (inactive)
- GI50 [57]: > 100 µM (inactive)
- GI50 [39]: > 100 µM (inactive)
- GI50 [40]: > 100 µM (inactive)
- GI50 [41]: > 100 µM (inactive)
- GI50 [42]: > 100 µM (inactive)
- GI50 [43]: > 100 µM
- GI50 [44]: > 100 µM (inactive)
- GI50 [45]: > 100 µM (inactive)
- GI50 [46]: > 100 µM (inactive)
- GI50 [47]: > 100 µM (inactive)
- GI50 [48]: > 100 µM (inactive)
- GI50 [58]: > 100 µM (inactive)

Compound: CC(=O)OCc1cccc(O)c1C(=O)CCC=C(C)C
- GI50 [49]: > 100 µM (inactive)
- GI50 [1]: > 100 µM (inactive)
- GI50 [2]: > 100 µM (inactive)
- GI50 [50]: > 100 µM (inactive)
- GI50 [3]: > 100 µM (inactive)
- GI50 [4]: 46.9 µM (inactive)
- GI50 [6]: 32.7 µM (inactive)
- GI50 [7]: > 100 µM (inactive)
- GI50 [8]: > 100 µM (inactive)
- GI50 [9]: > 100 µM (inactive)
- GI50 [10]: > 100 µM (inactive)
- GI50 [11]: > 100 µM (inactive)
- GI50 [12]: > 100 µM (inactive)
- GI50 [51]: > 100 µM (inactive)
- GI50 [13]: > 100 µM (inactive)
- GI50 [14]: > 100 µM (inactive)
- GI50 [15]: > 100 µM (inactive)
- GI50 [16]: > 100 µM (inactive)
- GI50 [52]: > 100 µM (inactive)
- GI50 [17]: 34.7 µM (inactive)
- GI50 [53]: > 100 µM (inactive)
- GI50 [18]: > 100 µM (inactive)
- GI50 [19]: > 100 µM (inactive)
- GI50 [21]: > 100 µM (inactive)
- GI50 [54]: > 100 µM (inactive)
- GI50 [22]: > 100 µM (inactive)
- GI50 [23]: 27.1 µM (inactive)
- GI50 [24]: > 100 µM (inactive)
- GI50 [26]: > 100 µM (inactive)
- GI50 [27]: > 100 µM (inactive)
- GI50 [28]: > 100 µM (inactive)
- GI50 [29]: 29.3 µM (inactive)
- GI50 [30]: > 100 µM (inactive)
- GI50 [31]: > 100 µM (inactive)
- GI50 [32]: > 100 µM (inactive)
- GI50 [33]: > 100 µM (inactive)
- GI50 [34]: > 100 µM (inactive)
- GI50 [55]: > 100 µM (inactive)
- GI50 [35]: > 100 µM (inactive)
- GI50 [36]: > 100 µM (inactive)
- GI50 [56]: > 100 µM (inactive)
- GI50 [37]: > 100 µM (inactive)
- GI50 [38]: > 100 µM (inactive)
- GI50 [57]: > 100 µM (inactive)
- GI50 [39]: 74.6 µM (inactive)
- GI50 [40]: > 100 µM (inactive)
- GI50 [41]: > 100 µM (inactive)
- GI50 [42]: > 100 µM (inactive)
- GI50 [43]: > 100 µM
- GI50 [44]: > 100 µM (inactive)
- GI50 [45]: > 100 µM (inactive)
- GI50 [46]: > 100 µM (inactive)
- GI50 [47]: > 100 µM (inactive)
- GI50 [48]: > 100 µM (inactive)
- GI50 [58]: > 100 µM (inactive)
